Patent publication US7763617B2, “Pyrazolopyridine-4-yl pyridazinone derivatives and addition salts thereof, and PDE inhibitors comprising the same derivatives or salts as active ingredient” (Kyorin Pharmaceutical Co., Ltd., priority 2005, dated 2010)
Like-named read-outs stand apart in the source and are kept apart here.

Legend:
[1] = target: T1, PDE3A catalytic domain (PDE3Acat) (Homo sapiens, UniProt Q14432); assay: Inhibition of phosphodiesterase activity, [3H]-cAMP hydrolysis, recombinant PDE3Acat; format: biochemical; conditions: cAMP 2 μmol/L
T1 construct: cDNA fragments of PDE3A catalytic domain (indicated as “cat,” hereinafter); made in house; host or cells: Sf9 insect cells (baculovirus, Bac-to-Bac)
T1 sequence (Q14432 674-1093 limits assumed): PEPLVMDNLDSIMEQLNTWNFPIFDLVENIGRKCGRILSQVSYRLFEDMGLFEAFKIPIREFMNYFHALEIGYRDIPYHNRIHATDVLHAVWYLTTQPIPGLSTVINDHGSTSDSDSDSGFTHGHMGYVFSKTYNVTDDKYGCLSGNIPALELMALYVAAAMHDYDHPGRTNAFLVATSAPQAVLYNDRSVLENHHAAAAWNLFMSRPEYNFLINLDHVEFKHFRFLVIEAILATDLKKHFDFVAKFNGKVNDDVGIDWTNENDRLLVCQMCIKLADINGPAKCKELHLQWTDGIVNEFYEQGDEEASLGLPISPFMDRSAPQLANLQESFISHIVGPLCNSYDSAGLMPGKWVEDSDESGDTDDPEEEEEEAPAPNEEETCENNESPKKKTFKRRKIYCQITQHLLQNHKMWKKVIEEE
Description: (§1) RT-PCR was performed to isolate cDNA fragments of PDE3A catalytic domain (indicated as “cat,” hereinafter), PDE4Bcat, PDE5Acat and PDE10A1 from human RNA. Using Gateway system (Invitrogen) and Bac-to-Bac (registered trademark) Baculovirus Expression system (Invitrogen), the isolated cDNA fragments were transfected into Sf9 insect cells for expression of the PDE proteins. The recombinant PDE3Acat, PDE4Bcat, PDE5Acat and PDE10A1 proteins were isolated from culture supernatant or cell extracts of Sf9 cells expressed high levels of these proteins by ion-exchange chromatography and used for the following experiments.
(§2) 4 mmol/L solution of each test compound was serially diluted 4-fold with 15% DMSO solution to prepare the solutions with concentrations of 15 nmol/L to 4 mmol/L (final concentrations=1.5 nmol/L-400 μmol/L). 10 μL of each test compound solution was added to each well of 96 plate with 10 μL of [^3H]-cAMP or [^3H]-cGMP solution, diluted with a buffer (40 mmol/L Tris-HCl (pH 7.4), 10 mmol/L MgCl2) to the concentration shown in Table 20 and 40 μL of each of the human recombinant PDE proteins in units shown in Table 20. The plate was incubated at 30° C. for 20 min, and then at 65° C. for 2 min. Subsequently, 25 μL of 1 mg/mL 5′-nucleotidase (Crotalus atrox venom, Sigma) was added to each well and the plate was incubated at 30° C. for 10 min. 200 μL of Dowex solution (300 mg/mL Dowex 1×8-400 (Sigma Aldrich), 33% ethanol) was then added to each well and the plate was shaken at 4° C. for 20 min. Subsequently, 200 μL of MicroScint 20 (Packard) was added to each well and the radioactivity of each sample was measured by a scintillation counter (Topcount, Packard) IC50 was calculated by GraphPad Prism v3.03 (GraphPad Software).

PDE4Bcat = target: T2, PDE4Bcat (Homo sapiens, UniProt Q07343); assay: Inhibition of phosphodiesterase activity, [3H]-cAMP hydrolysis, recombinant PDE4Bcat; format: biochemical; conditions: cAMP 2 μmol/L, read-out: IC50(μmol/L) PDE4
T2 construct: catalytic domain (indicated as “cat,” hereinafter), PDE4Bcat; made in house; host or cells: Sf9 insect cells (baculovirus, Bac-to-Bac)
T2 sequence (Q07343 330-659 limits assumed): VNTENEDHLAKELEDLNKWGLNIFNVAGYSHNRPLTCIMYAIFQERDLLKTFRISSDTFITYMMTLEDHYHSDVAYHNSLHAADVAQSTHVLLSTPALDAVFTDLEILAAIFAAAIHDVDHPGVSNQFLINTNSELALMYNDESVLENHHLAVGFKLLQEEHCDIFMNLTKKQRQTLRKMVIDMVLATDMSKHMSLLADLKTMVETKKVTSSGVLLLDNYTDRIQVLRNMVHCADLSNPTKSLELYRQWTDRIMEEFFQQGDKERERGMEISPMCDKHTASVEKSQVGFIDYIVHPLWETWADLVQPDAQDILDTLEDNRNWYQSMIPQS
Description: as §1, §2

PDE5Acat = PDE5Acat (Homo sapiens, UniProt O76074); assay: Inhibition of phosphodiesterase activity, [3H]-cGMP hydrolysis, recombinant PDE5Acat; format: biochemical; conditions: cGMP 2 μmol/L, read-out: IC50(μmol/L) PDE5
Description: as §1, §2

PDE10A1 = target: T3, PDE10A1 (Homo sapiens, UniProt Q9Y233); assay: Inhibition of phosphodiesterase activity, [3H]-cAMP hydrolysis, recombinant PDE10A1; format: biochemical; conditions: human recombinant PDE10A1, cAMP 0.2 μmol/L; read-out: IC50(μmol/L) PDE10
T3 construct: made in house; host or cells: Sf9 insect cells (baculovirus, Bac-to-Bac)
T3 sequence (Q9Y233 1-779 isoform Q9Y233-1): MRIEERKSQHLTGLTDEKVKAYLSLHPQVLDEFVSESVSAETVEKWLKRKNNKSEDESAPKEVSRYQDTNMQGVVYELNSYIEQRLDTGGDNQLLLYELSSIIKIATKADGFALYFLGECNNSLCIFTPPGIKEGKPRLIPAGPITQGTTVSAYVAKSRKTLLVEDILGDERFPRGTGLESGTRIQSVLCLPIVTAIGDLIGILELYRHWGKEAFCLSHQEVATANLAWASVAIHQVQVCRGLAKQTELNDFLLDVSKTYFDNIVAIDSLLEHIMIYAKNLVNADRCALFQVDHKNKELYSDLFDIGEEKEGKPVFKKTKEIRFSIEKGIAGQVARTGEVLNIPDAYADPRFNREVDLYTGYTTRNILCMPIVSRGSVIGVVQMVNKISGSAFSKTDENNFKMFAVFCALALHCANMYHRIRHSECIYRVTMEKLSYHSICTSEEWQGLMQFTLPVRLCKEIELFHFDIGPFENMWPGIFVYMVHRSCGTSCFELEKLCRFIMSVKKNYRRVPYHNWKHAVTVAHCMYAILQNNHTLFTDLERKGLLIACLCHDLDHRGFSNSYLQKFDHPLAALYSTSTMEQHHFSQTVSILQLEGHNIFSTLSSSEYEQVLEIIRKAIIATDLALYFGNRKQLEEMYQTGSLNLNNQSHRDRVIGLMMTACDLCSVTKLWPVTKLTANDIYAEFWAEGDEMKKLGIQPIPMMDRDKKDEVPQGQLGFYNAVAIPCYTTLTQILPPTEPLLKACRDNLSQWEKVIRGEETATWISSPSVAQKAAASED
Description: as §1, §2

[2] = tested on: isolated guinea pig tracheal smooth muscles; assay: Relaxant effect on histamine-induced contraction of isolated guinea pig tracheal smooth muscles; conditions: Cavia porcellus; histamine 10^-5 mol/L contraction, relaxation as % of maximum response to papaverine 10^-4 mol/L; read-out: IC50(μmol/L), concentration required to 50% relaxation
Description: Guinea pigs were exsanguinated and the trachea was immediately isolated and cut into 2 to 3 cartilage ring segments to prepare tracheal ring preparations. The tracheal rings were suspended in 10 mL of Tyrode's solution bubbled with a gaseous mixture of 95% O2+5% CO2 at 37° C. The composition of the Tyrode's solution (mM) was as follows: NaCl 136.9, KCl 2.7, CaCl2 1.8, MgCl2 1.0, NaH2PO4 0.4, NaHCO3 11.9 and Gucose 5.6. The contractile response was measured by an isometric transducer (UM-203, KISHIMOTO) and recorded on a recorder ([…] SERVOCORDER SR6221). After about 1 hour incubation with 1.5 g of resting tention, histamine (10^−5 mol/L) was added to induce the contractile response. After confirming the response, the preparations were washed with Tyrode's solution (10 mL×3). Then indomethacin (10^−5 mol/L) was applied and the preparations were equilibrated for at least 30 min under 1.5 g tension. Subsequently, histamine (10^−5 mol/L) was applied. After the contraction reached a steady state, each compound was added in a cumulative manner (10^−8 mol/L-3×10^−5 mol/L). Each compound was prepared as a 10^−1 mol/L solution in DMSO, which was diluted with distilled water for use. After addition of test compounds, papaverine (10^−4 mol/L) was added to determine the maximum relaxation of the preparation. Relaxant response of test compounds were expressed as a percentage of the maximum response to papaverine. IC50 was defined as a concentration of the compound required to 50% relaxation. DMSO was used as a control.

[3] = tested on: histamine-induced bronchoconstriction; assay: Histamine-induced bronchoconstriction in guinea pigs; format: in vivo, guinea pig; conditions: Cavia porcellus, iv, 0.5 min, 30 seconds after administration, histamine 12.5 μg/kg i.v.; for inhibition in vivo at 1 mg/kg: test compound 1 mg/kg i.v.
Description: Guinea pigs were anesthetized with pentobarbital (30 mg/kg, i.p.). A cannula for IV administeration, a cannula for collecting blood and measurement of blood pressure and a trachea cannula were inserted into the left exterior jugular vein, right interior carotid artery and trachea, respectively. The animals were placed under artificial respiration at 60 times/min and 10 mL/kg/stroke. The airflow through the branch of the tracheal cannula was measured by a bronchospasm transducer (Ugo-Basile) and recorded on a computer via Power Lab (ADInstruments Japan). The animals were immobilized with gallamine (10 mg/kg, i.v.), then administered histamine at 10-minute intervals (12.5 μg/kg, i.v.). […] To examine the inhibitory activity of test compound, the histamine-induced bronchoconstriction was measured after 30 seconds of drug administration. The bronchoconstriction was recorded as the change of the airflow: The results were shown by percentages of the maximum histamine-induced bronchoconstriction. Each test compound was prepared as a 10 mg/mL solution in DMSO. Gallamine was prepared as a 10 mg/mL solution in physiological saline. Histamine was prepared as a 1 mg/mL solution in physiological saline, which was diluted with physiological saline to 62.5 μg/mL for use.

[4] = human recombinant PDE3Acat, read-out: IC50(μmol/L) PDE3

Structure (SMILES)	IC50 [1, 4]	IC50 (PDE4Bcat)	IC50 (PDE5Acat)	IC50 (PDE10A1)	IC50 [2]	inhibition in vivo at 0.1 mg/kg ([3]; values in brackets: test compound 0.1 mg/kg, i.v.)	inhibition in vivo at 1 mg/kg [3]	melting point	IC50 ([1]; IC50(μmol/L) PDE3, human recombinant PDE3Acat)
COc1ccc(C2=NNC(=O)CC2C)c2cc(C(F)(F)F)nn12 (stereo not shown) [205(211), 6-(7-methoxy-2-trifluoromethyl-pyrazolo[1,5-a]pyridine-4-yl)-4,5-dihydro-5-methyl-3-(2H)-pyridazinone]	1 to 10 µmol/L	< 1 µmol/L	> 10 µmol/L	1 to 10 µmol/L	0.3 µmol/L	≥ 90%			
CCc1cc2c(C3=NNC(=O)CC3C)cccn2n1 (stereo not shown) [Example 201]	1 to 10 µmol/L	> 10 µmol/L	> 10 µmol/L	1 to 10 µmol/L	0.93 µmol/L		≥ 90%	231 to 233 °C	
CCc1cc2c(C3=NNC(=O)CC3C)ccc(OC)n2n1 (stereo not shown) [Example 216]		0.1 to 1 µmol/L	> 10 µmol/L	1 to 10 µmol/L	0.65 µmol/L		≥ 90%		> 10 µmol/L
CCc1cc2c(-c3ccc(=O)[nH]n3)cccn2n1 [Example 304]	1 to 10 µmol/L	> 10 µmol/L	> 10 µmol/L	> 10 µmol/L	0.89 µmol/L		≥ 90%		
CCc1cc2c(-c3n[nH]c(=O)cc3C)cccn2n1 [Example 305]								229 to 231 °C	
CCc1cc2c(C3=NNC(=O)CC3C)cc(Cl)cn2n1 (stereo not shown) [Example 311, 6-(6-chloro-2-ethyl-pyrazolo[1,5-a]pyridine-4-yl)-5-methyl-4,5-dihydro-3-(2H)-pyridazinone]					2 µmol/L			172 to 174 °C	
